# Assay results published in US4816444A, “Cell growth inhibitory substance” (priority 1987, dated 1989).
# Legend:
# [1] = system: Human Melanoma Xenograph (LOX); experiment: NCI human melanoma xenograph to nude mouse (LOX); format: in vivo; settings: 52 μg/kg
# [2] = system: Human Melanoma Xenograph (LOX); experiment: NCI human melanoma xenograph to nude mouse (LOX); format: in vivo
# Method: Unit dosage forms of dolastatin 10 were prepared according to Example 1 and were screened using accepted protocols of the National Cancer Institute. The preparation obtained a 17-67% cure rate at 3.25-26 μg/kg host body weight against NCI murine human melanoma xenograph.
# P388 in vitro cell line = P388 in vitro cell line growth inhibition; format: cell-based, murine
# [3] = system: P388 lymphocytic leukemia; experiment: NCI murine P388 lymphocytic leukemia (PS system), in vivo
# Method: Unit dosage forms of dolastatin 10 prepared according to selected compositions described in Example 1 were screened utilizing Protocol 1,200 described in Cancer Chemotherapy Reports, parts 3, Vol. 3, No. 2, September 1972, pp 9 et seq for lymphocytic leukemia P388. Dolastatin 10 provided a 69-102% life extension at 1-4 μg/Kg host body weight against the murine P388 lymphocytic leukemia.
# M5076 Ovary Sarcoma = experiment: M5076 ovary sarcoma, murine in vivo system
# B16 Melanoma [4] = experiment: NCI murine B16 melanoma, in vivo
# Method: A unit dosage form of dolastatin 10, prepared according to Example 1, was challenged with B-16 murine melanoma and obtained a 42% to 138% life extension at 1.44 to 11.1 μg/Kg using the National Cancer Institute accepted protocol.
# [5] = system: L1210 Lymphocytic Leukemia; experiment: L1210 lymphocytic leukemia, murine in vivo system
# [6] = system: Human Mammary Xenograph MX-1; experiment: Human mammary xenograph to nude mouse MX-1 (life extension); format: in vivo
# MX-1 = MX-1 tumor regression; format: in vivo, human
# B16 Melanoma [7] = settings: 11 μg/kg; cited from earlier work
compound,measurement,setting,value
CC[C@H](C)[C@@H]([C@@H](CC(=O)N1CCC[C@H]1[C@H](OC)[C@@H](C)C(=O)N[C@@H](Cc1ccccc1)c1nccs1)OC)N(C)C(=O)[C@@H](NC(=O)[C@H](C(C)C)N(C)C)C(C)C [Dolastatin 10],T/C,[1],toxic
same,cures,[1],66.6%
same,T/C,[2]; 3.25 μg/kg,170
same,T/C,[2]; 6.5 μg/kg,206
same,cures,[2]; 6.5 μg/kg,16.6%
same,T/C,[2]; 13 μg/kg,301
same,cures,[2]; 13 μg/kg,33.3%
same,T/C,[2]; 26 μg/kg,301
same,cures,[2]; 26 μg/kg,50%
same,curative response / cure rate,[2]; 3.25-26 μg/kg,17-67%
same,ED50,P388 in vitro cell line,0.046 ng/mL
same,T/C,[3]; 2 μg/kg,199
same,T/C,[3]; 4 μg/kg,202
same,T/C,[3]; 8 μg/kg,161
same,T/C,[3]; 13.5 μg/kg,173
same,T/C,[3]; 08-27 μg/kg,toxic
same,T/C,M5076 Ovary Sarcoma; 3.25 μg/kg,151
same,T/C,M5076 Ovary Sarcoma; 6.5 μg/kg,142
same,T/C,M5076 Ovary Sarcoma; 13 μg/kg,166
same,T/C,M5076 Ovary Sarcoma; 24 μg/kg,toxic
same,T/C,M5076 Ovary Sarcoma; 26 μg/kg,toxic
same,T/C,B16 Melanoma [4]; 3.4 μg/kg,171
same,T/C,B16 Melanoma [4]; 4.0 μg/kg,205
same,T/C,B16 Melanoma [4]; 6.67 μg/kg,182
same,T/C,B16 Melanoma [4]; 11.11 μg/kg,238
same,T/C,[5]; 1.63 μg/kg,120
same,T/C,[5]; 3.25 μg/kg,139
same,T/C,[5]; 6.5 μg/kg,135
same,T/C,[5]; 13 μg/kg,152
same,T/C,[5]; 26 μg/kg,toxic
same,T/C (life extension),[6]; 6.25 μg/kg,178
same,T/C (life extension),[6]; 13 μg/kg,137
same,T/C (life extension),[6]; 26 μg/kg,toxic
same,T/C (life extension),[6]; 52 μg/kg,toxic
same,"MX-1 Tumor Regression, T/C",MX-1; 6.25 μg/kg,69
same,"MX-1 Tumor Regression, T/C",MX-1; 13 μg/kg,61
same,"MX-1 Tumor Regression, T/C",MX-1; 26 μg/kg,50
same,"MX-1 Tumor Regression, T/C",MX-1; 52 μg/kg,14
dolastatin 1,cure rate,B16 Melanoma [7],33%
